Assay results taken from US20160015669A1, “COMPOUND, 1, 3-DIOLEIN-2-LINOLEIN, AND PHARMACEUTICAL PREPARATION AND USE THEREOF” (ZHEJIANG KANGLAITE GROUP CO., LTD., priority 2014, published 2016).
≈ marks a conversion by molar mass, not a printed value.

Tests used:
Type in all cases: cell-based
[1] = system: BGC-823 (human gastric cancer cells); assay: MTT method, inhibition of cell growth in vitro; conditions: 48 h; for IC50: BGC-823, MTT
Source text: (§1) A. Experimental Materials and the Preparation Thereof: • (1) Cell lines: PANC-1 (human pancreatic cancer cells), SKOV3 (human ovarian cancer cells), MCF-7 (human breast cancer cells), SMMC-7721 (human liver cancer cells), A549 (human lung cancer cells), BGC-823 (human gastric cancer cells), COLO205 (human colonic cancer cells), storaged and passaged maintainably in Research and Evaluation Center for Pharmacology, Shanghai Institute of Pharmaceutical Industry; • (2) DMEM complete medium supplied with 10% newborn calf serum (GIBCO BRL), 1% of penicillin (100 U/mL)+streptomycin (100 μg/mL); • (3) 0.25% trypsin solution, purchased from Invitrogen Corp. and storaged at −20; • (4) Phosphate buffer (PBS): NaCl 8 g, KCl 0.2 g, Na2HPO4 1.15 g and KH2PO4 0.2 g, dissolved in 1 L double-distilled water and autoclaved at 121 for 20 min, then storaged at 4; • (5) MTT (AMRESCO) solution: 5 mg/ml in PBS; • (6) Formazan crystal dissolving solution: SDS 10 g, isobutanol 5 ml and concentrated hydrochloric acid 0.1 ml, dissolved in 100 ml of deionized double distilled water.
(§2) The inhibition effects of the compound of formula (I) on the above-mentioned cell lines were detected by using MTT method. The specific procedures were as follows:
(§3) (1) Cell culture: (a) Storaged cells were taken out from the liquid nitrogen, thawed quickly in a 37 water bath, then aseptically transferred into 6 ml of cellular medium in a 10 ml centrifugal tube, centrifuged at 1000 rpm for 5 min. The supernatant was discarded, then the precipitated cells were re-suspended in 5-6 ml cellular media by pipetting and transferred into a flask in a 37 incubator for cell culture; (b) Next day, the flask was taken out from the incubator and the used medium was discarded, then the cells were incubated in 5-6 ml fresh medium in the 37 incubator; (c) On the third day, the flask was taken out from the incubator and the used medium was discarded, then 2-3 ml of PBS (pH7.4) was added into the flask with rocking for cleaning it and the used PBS was discarded. Such a cellular cleaning step was repeated once again. 3-5 drops of 0.25% trypsin solution were added into the flask with sloshing, thus well-distributed in it. The flask was capped and placed in a 37 incubator for about 3 min, and the separation of cells from the flask wall was observed under the microscope. 2 ml of cellular medium was added and cells were separated completely from the flask wall by pipetting, then the cell suspension was transferred into 2 separate clean flasks, each containing 5-6 ml medium. The cell suspension was well-distributed by pipetting, then the flask was placed in a 37 incubator. (d) Step(c) was repeated every other day. In the whole cultivation process, adherent cells were not allowed to grow too dense and suspension cells were always maintained at a logarithmic growth stage.
(§4) (2) Preparation of the sample and the control: A proper amount of sample of the compound of formula (I) was dissolved in DMSO to obtain a solution in a concentration of 10 mg/ml. This solution was diluted in a gradient dilution with PBS to obtain a set of sample solutions in the concentration of 10 mg/ml, 5000 μg/ml, 2500 μg/ml, 1250 μg/ml, 625 μg/ml and 312.5 μg/ml, respectively.
(§5) (3) Each diluted sample solution was added into duplicated wells of a 96 well flat-bottom microplate (10 μl/well). The correspondingly diluted DMSO solutions, as controls, were added into the wells of the microplate.
(§6) (4) Cells in a logarithmic growth stage were trypsinized and washed, then re-suspended in the medium containing 10% calf serum. The number of living cells was counted in Trypan blue dye exclusion method and cell suspensions were adjusted into a density of 2×10^5 cell/ml.
(§7) (5) The cell-contained 96 well flat-bottom microplate was placed in a 37 incubator and cells were incubated under 5% CO2 for 48 h.
(§8) (6) 20 it of 5 mg/ml MTT solution was added into each well and cells were incubated continuously in the incubator for 3-4 h. […]

[2] = system: COLO205 (human colonic cancer cells); assay: MTT method, inhibition of cell growth in vitro; conditions: 48 h; for IC50: COLO 205, COLO205, MTT
Source text: as §1, §2, §3, §4, §5, §6, §7, §8

[3] = system: SMMC-7721 (human liver cancer cells); assay: MTT method, inhibition of cell growth in vitro; conditions: 48 h; for IC50: SMMC-7721, MTT
Source text: as §1, §2, §3, §4, §5, §6, §7, §8

[4] = system: PANC-1 (human pancreatic cancer cells); assay: MTT method, inhibition of cell growth in vitro; conditions: 48 h; for IC50: PANC-1, MTT
Source text: as §1, §2, §3, §4, §5, §6, §7, §8

[5] = system: MCF-7 (human breast cancer cells); assay: MTT method, inhibition of cell growth in vitro; conditions: 48 h
Source text: as §1, §2, §3, §4, §5, §6, §7, §8

[6] = system: A549 (human lung cancer cells); assay: MTT method, inhibition of cell growth in vitro; conditions: 48 h
Source text: as §1, §2, §3, §4, §5, §6, §7, §8

[7] = system: SKOV3 (human ovarian cancer cells); assay: MTT method, inhibition of cell growth in vitro; conditions: 48 h
Source text: as §1, §2, §3, §4, §5, §6, §7, §8

[8] = system: 7 human tumor cell lines; assay: MTT method, overall conclusion on 7 human tumor cell lines; conditions: various concentrations
Source text: as §1
The inhibition effects of the compound of formula (I) on the above-mentioned cell lines were detected by using MTT method. The specific procedures were as follows: […]

CC(=O)O[C@H]1C(=O)[C@@]2(C)[C@H]([C@H](OC(=O)c3ccccc3)[C@]3(O)C[C@H](OC(=O)[C@H](O)[C@@H](NC(=O)c4ccccc4)c4ccccc4)C(C)=C1C3(C)C)[C@]1(OC(C)=O)CO[C@@H]1C[C@@H]2O [Taxol, reference compound]
IC50 [1]: 0.24 µg/mL (≈ 0.281 µM) | IC50 [2]: 0.75 µg/mL (≈ 0.878 µM) | IC50 [3]: 0.12 µg/mL (≈ 0.141 µM) | IC50 [4]: 0.44 µg/mL (≈ 0.515 µM)

CCCCCC=CCC=CCCCCCCCC(=O)OC(COC(=O)CCCCCCCC=CCCCCCCCC)COC(=O)CCCCCCCC=CCCCCCCCC (centres unmarked) [compound of formula (I), 1,3-diolein-2-linolein]
inhibition at 31.25 µg/mL ([5]; MCF7, MCF-7, 31.25 μg/ml, read-out: Inhibition rate on the cell growth): 13.3% | inhibition at 62.5 µg/mL ([5]; MCF7, MCF-7, 62.5 μg/ml, read-out: Inhibition rate on the cell growth): 31.5% | inhibition at 125 µg/mL ([5]; MCF7, MCF-7, 125 μg/ml, read-out: Inhibition rate on the cell growth): 62.3% | inhibition at 250 µg/mL ([5]; MCF7, MCF-7, 250 μg/ml, read-out: Inhibition rate on the cell growth): 67.1% | inhibition at 500 µg/mL ([5]; MCF7, MCF-7, 500 μg/ml, read-out: Inhibition rate on the cell growth): 68.8% | inhibition at 1000 µg/mL ([5]; MCF7, MCF-7, 1000 μg/ml, read-out: Inhibition rate on the cell growth): 99.7% | IC50 ([5]; MCF7, MCF-7, MTT): 106 µg/mL | inhibition at 31.25 µg/mL ([1]; BGC-823, 31.25 μg/ml, read-out: Inhibition rate on the cell growth): 8.31% | inhibition at 62.5 µg/mL ([1]; BGC-823, 62.5 μg/ml, read-out: Inhibition rate on the cell growth): 63.8% | inhibition at 125 µg/mL ([1]; BGC-823, 125 μg/ml, read-out: Inhibition rate on the cell growth): 79% | inhibition at 250 µg/mL ([1]; BGC-823, 250 μg/ml, read-out: Inhibition rate on the cell growth): 76.2% | inhibition at 500 µg/mL ([1]; BGC-823, 500 μg/ml, read-out: Inhibition rate on the cell growth): 85% | inhibition at 1000 µg/mL ([1]; BGC-823, 1000 μg/ml, read-out: Inhibition rate on the cell growth): 98.5% | IC50 [1]: 85 µg/mL | inhibition at 31.25 µg/mL ([2]; COLO 205, COLO205, 31.25 μg/ml, read-out: Inhibition rate on the cell growth): 8.95% | inhibition at 62.5 µg/mL ([2]; COLO 205, COLO205, 62.5 μg/ml, read-out: Inhibition rate on the cell growth): 10.7% | inhibition at 125 µg/mL ([2]; COLO 205, COLO205, 125 μg/ml, read-out: Inhibition rate on the cell growth): 12.6% | inhibition at 250 µg/mL ([2]; COLO 205, COLO205, 250 μg/ml, read-out: Inhibition rate on the cell growth): 43.9% | inhibition at 500 µg/mL ([2]; COLO 205, COLO205, 500 μg/ml, read-out: Inhibition rate on the cell growth): 82.3% | inhibition at 1000 µg/mL ([2]; COLO 205, COLO205, 1000 μg/ml, read-out: Inhibition rate on the cell growth): 93.8% | IC50 [2]: 209 µg/mL | inhibition at 31.25 µg/mL ([3]; SMMC-7721, 31.25 μg/ml, read-out: Inhibition rate on the cell growth): 8.81% | inhibition at 62.5 µg/mL ([3]; SMMC-7721, 62.5 μg/ml, read-out: Inhibition rate on the cell growth): 13.4% | inhibition at 125 µg/mL ([3]; SMMC-7721, 125 μg/ml, read-out: Inhibition rate on the cell growth): 38.5% | inhibition at 250 µg/mL ([3]; SMMC-7721, 250 μg/ml, read-out: Inhibition rate on the cell growth): 62.3% | inhibition at 500 µg/mL ([3]; SMMC-7721, 500 μg/ml, read-out: Inhibition rate on the cell growth): 80% | inhibition at 1000 µg/mL ([3]; SMMC-7721, 1000 μg/ml, read-out: Inhibition rate on the cell growth): 98.8% | IC50 [3]: 150 µg/mL | inhibition at 31.25 µg/mL ([6]; A549, 31.25 μg/ml, read-out: Inhibition rate on the cell growth): 5.16% | inhibition at 62.5 µg/mL ([6]; A549, 62.5 μg/ml, read-out: Inhibition rate on the cell growth): 25.6% | inhibition at 125 µg/mL ([6]; A549, 125 μg/ml, read-out: Inhibition rate on the cell growth): 46.4% | inhibition at 250 µg/mL ([6]; A549, 250 μg/ml, read-out: Inhibition rate on the cell growth): 50.5% | inhibition at 500 µg/mL ([6]; A549, 500 μg/ml, read-out: Inhibition rate on the cell growth): 67% | inhibition at 1000 µg/mL ([6]; A549, 1000 μg/ml, read-out: Inhibition rate on the cell growth): 98.2% | IC50 ([6]; A549, MTT): 156 µg/mL | inhibition at 31.25 µg/mL ([7]; SK-OV-3, SKOV3, 31.25 μg/ml, read-out: Inhibition rate on the cell growth): 9.97% | inhibition at 62.5 µg/mL ([7]; SK-OV-3, SKOV3, 62.5 μg/ml, read-out: Inhibition rate on the cell growth): 34% | inhibition at 125 µg/mL ([7]; SK-OV-3, SKOV3, 125 μg/ml, read-out: Inhibition rate on the cell growth): 76.8% | inhibition at 250 µg/mL ([7]; SK-OV-3, SKOV3, 250 μg/ml, read-out: Inhibition rate on the cell growth): 79.4% | inhibition at 500 µg/mL ([7]; SK-OV-3, SKOV3, 500 μg/ml, read-out: Inhibition rate on the cell growth): 93.8% | inhibition at 1000 µg/mL ([7]; SK-OV-3, SKOV3, 1000 μg/ml, read-out: Inhibition rate on the cell growth): 99.3% | IC50 ([7]; SK-OV-3, SKOV3, MTT): 92.6 µg/mL | inhibition at 62.5 µg/mL ([4]; PANC-1, 62.5 μg/ml, read-out: Inhibition rate on the cell growth): 0.8% | inhibition at 125 µg/mL ([4]; PANC-1, 125 μg/ml, read-out: Inhibition rate on the cell growth): 2.01% | inhibition at 250 µg/mL ([4]; PANC-1, 250 μg/ml, read-out: Inhibition rate on the cell growth): 25.9% | inhibition at 500 µg/mL ([4]; PANC-1, 500 μg/ml, read-out: Inhibition rate on the cell growth): 48.1% | inhibition at 1000 µg/mL ([4]; PANC-1, 1000 μg/ml, read-out: Inhibition rate on the cell growth): 75% | IC50 [4]: 509 µg/mL | Inhibition on 7 human tumor cell lines (in words) [8]: obvious inhibition on 7 human tumor cell lines
